Earlier results as cited in patent US6542858B1, “Pharmacokinetic-based drug design tool and method” (Lion Bioscience AG, priority 1998, dated 2003).

Legend:
[1] = Plasma Kinetics; mass model parameter

Nc1nc2c(ncn2COC(CO)CO)c(=O)[nH]1.[Na] [Gancyclovir, 9-(1,3-dihydroxy-2-propoxymethyl)guanine, monosodium salt]
in vivo biotransformation: no in vivo biotransformation
absorption (in vivo): poorly absorbed
k21 [1]: 0.670
